Measured values as given in patent US4428955A, “Benzopyran compounds, pharmaceutical compositions containing them and methods of use” (Boehringer Mannheim GmbH, priority 1981, dated 1984).

Tested on: antigen induced bronchospasm
Assay: Inhibition of antigen induced bronchospasm in passively sensitized guinea pigs
Format: in vivo, guinea pig
Details: 60 min before antigen, 3 min after antigen application
Procedure: The following tests were conducted to determine the effectiveness of the new compounds in the inhibition of antigen induced bronchospasm in passively sensitized guinea pigs.
The antigen is twice recrystallised egg albumin. Equal volumes of saline solution of antigen (5 mg/ml) and Freund's complete adjuvant were emulsified and 0.15 ml injected into each hind foot of adult male guinea pigs (DAVIES and JOHNSON: Int. Arch. Allergy 41, 648-654 (1971)).
The animals were bled and the pooled serum stored at -20° C.
Injections of 0.5 ml antiserum of 1:50 dilution were given i.v. 24-48 h before challenge.
Guinea pigs were anaesthetized with pentobarbitone sodium (40 mg/kg i.p.). Cannulae were tied into the trachea and the jugular vein and the lung inflated with a pump at a rate of 72 strokes/min and a constant stroke volume of 6-8 ml.
Bronchospasm, provoked by injecting ovalbumin i.v. was measured as described in COLLIER, H. O. J., J. A. HOLGATE, M. SCHACHTER: THE BRONCHOCONSTRICTOR ACTION OF BRADYKININ IN THE GUINEA-PIG. Brit. J. Pharmacol. 15, 290 (1960) and KONZETT, H. und R. ROSSLER: Versuchsanordnung zu Untersuchungen an der Bronchialmuskulatur. Naunyn-Schmiedebergs Arch. exp. Path. Pharmk. 195, 71-74 (1940)
Drugs were applied p.o. 60 min before antigen. For calculation the following formular was used: [formula]
b=Bronchospasm after antigen injection, measured in mm from tracing
m=maximum height of tracing in mm with arm of the trachea-cannula clamped
a=pre injection height of the tracing in mm
% inhibition of bronchospasm was calculated by comparing control groups with drug pretreated groups 3 min after antigen application.

Compound | % Inhibition of BrSp (bronchospasm) (0.38 mg/kg p.o.) | % Inhibition of BrSp (bronchospasm) (0.75 mg/kg p.o.) | % Inhibition of BrSp (bronchospasm) (1.5 mg/kg p.o.) | % Inhibition of BrSp (bronchospasm) (3.0 mg/kg p.o.)
Cc1cc(=O)c2ccc(OCCCN3CCC(NC(=O)c4ccccc4)CC3)cc2o1 [7-[3-(4-Benzamidopiperidino)-propoxy]-2-methyl-4H-1-benzopyran-4-one] | 55% | 64% | – | –
Cc1cc(=O)c2ccc(OCCCN3CCC(NC(=O)c4ccccc4C)CC3)cc2o1 [7-{3-[4-(2-methylbenzamido)-piperidino]-propoxy}-2-methyl-4H-1-benzopyran-4-one] | – | 60% | – | –
Cc1c(C)c2ccc(OCCCN3CCC(NC(=O)c4cccs4)CC3)cc2oc1=O [3,4-Dimethyl-7-{3-[4-(thiophene-2-carboxamido)-piperidino]-propoxy}-cumarin, reference compound] | – | 0% | 40% | 67%
Cc1cc(=O)c2ccc(OCCCN3CCC(NC(=O)c4ccc(F)cc4)CC3)cc2o1 [7-{3-[4-(4-fluorobenzamido)-piperidino]-propoxy}-2-methyl-4H-1-benzopyran-4-one] | 46% | – | – | –
